How the values were obtained:
[1] = system: Podosphaera xanthii (syn. Sphaerotheca fuliginea); test: Foliar spray on powdery mildew-infected cucumber plants; details: for Percentage of reduction of cucumber powdery mildew: Table 5, 1/500 (w/v) in water
Experimental: Compositions 1 to 4 (Table 1) were applied by foliar spray 7 to 10 days after the inoculation of cucumber plants with powdery mildew spores (infected with 3-4×10^4 spores/mL of Podosphaera xanthii (syn. Sphaerotheca fuliginea)).
Each composition was sprayed once on cucumber leaves and disease assessment was performed after 3, 6, 8 and 12 days. […] For each composition, the assay was repeated three times and the results illustrated in Table 2 represent the average of these three assays.
As previously indicated, some garlic-based compositions are described in U.S. Pat. No. 6,231,865. Particular attention is paid to Samples 1 to 4 disclosed in column 2 of this document.

Oidium neolycopersici = test: Semi-commercial greenhouse trial, tomato powdery mildew; assay type: in vivo
Experimental: Surface-sterilized tomato seeds (cv. Trust) were sown in rock wool cubes and fertilized daily with a standard nutrient solution. Seedlings were grown for 4 wk on a greenhouse bench at 21-24° C. with a 16 h photoperiod and transplanted (at the early flower stage) into rook wool in 13.5 L plastic bags perforated on the upper face in order to insert two rock wool cubes per bag. Plants at the 12-15 leaf stage were inoculated by rubbing a piece of tomato leaf heavily infected by Oidium neolycopersici onto leaf 7. At the onset of the first powdery mildew colonies (after 7-10 days), plants were sprayed with each formulation or with sulphur (the currently applied fungicide in tomato greenhouses) while controls were sprayed with water. The treatments were arranged in a randomized complete block design with 6 plants per treatment and three replications. All treatments with the garlic compositions were repeated once a week.
The treatments included: 1) Dehydrated garlic extracts-chitosan lactate (composition 1); 2) Dehydrated garlic extracts alone (composition 2); 3) chitosan lactate alone (composition 3); 4) sulphur; 5) water; and 6) water+vegetable oil (composition 4).
Disease severity was assessed three and six days after each treatment and evaluated as percentage of leaf area covered by powdery mildew. The assessments were made on a “low” leaf level (about leaf 3), a “middle” leaf level (leaves 6 and 9) and a “high” leaf level (about leaf 12) on three leaves for each level. For each treatment, […] yield was evaluated on 3 plants per replication. Data were analyzed by analysis of variance using the SAS procedure (SAS Inst., Inc., Cary, N.C.). The LSMEANS option was used to generate the probability of difference between all the variables in the study. Single degrees of freedom orthogonal contrasts were used to compare effects of the composition vs. chitosan lactate alone, the composition vs. water or water and oil, and the composition vs. sulphur. It is of note that powdery mildew on tomato is much less aggressive than it is on cucumber.

[2] = 3 plants of tomato, cv. Trust, 14 weeks after harvest

Row | Compound | Percentage of reduction of cucumber powdery mildew ([1]; 3 days) [%] | Percentage of reduction of cucumber powdery mildew ([1]; 6 days) [%] | Percentage of reduction of cucumber powdery mildew ([1]; 8 days) [%] | Percentage of reduction of cucumber powdery mildew ([1]; 12 days) [%] | Phytotoxicity on cucumber plants ([1]; days following the application) | Average fruit weight, class 1 (Oidium neolycopersici; [2]) [g] | Total fruit yield, class 1 (Oidium neolycopersici; [2]) [Kg/m^2] | Total number of fruits, class 1 (Oidium neolycopersici; [2]) [tomatos/m^2] | Disease incidence after 14 weeks (% of infection) (Oidium neolycopersici; percentage of leaf area covered by powdery mildew, tomato cv. Trust) | Reduction of the incidence of powdery mildew in tomato (disease control) (Oidium neolycopersici; tomato greenhouse trial) [%]
1 | CCCCCCCCCCCCOS(=O)(=O)[O-].[Na+] [Sodium dodecyl sulfate] | 100 | 100 | 100 | 95 | phytoxicity developed |  |  |  |  | 
2 | S1SSSSSSS1 [Sulphur] |  |  |  |  |  | 164 ± 3 | 16.3 ± 1.1 | 100 ± 5.0 | 0.28 ± 0.08 % of infection | ~100
